Tests used:
[1] = test system: epinephrine-increased blood-pressure (anti-α effect); experiment: Antiadrenergic effect: anti-α effect (reduction of epinephrine-increased blood-pressure); format: in vivo; details: dog
Experimental: (§1) The purpose of this test was to determine the capacity of the compounds under study to reduce epinephrine-increased blood-pressure (anti-α effect) and epinephrine-accelerated heart rate (anti-β effect) in the dog previously anaesthetized with pentobarbital and atropinized.
(§2) For each dog, the dose of epinephrine was first determined which provoked a reproductible increase by about 100 mm. Hg in the arterial pressure (between 5 and 10 μg/kg). After that, the dose of epinephrine so determined was administered followed by a dose by intravenous route of the compound to be studied. The percentage of reduction of the hypertension provoked by the compound under study in comparison with the hypertension previously obtained (about 100 mm. Hg) was then registered.
(§3) The percentage of reduction of the epinephrine-induced acceleration of heart-rate produced by the compound under study in comparison with the tachycardia previously measured (about 70 beats) was then registered. In both cases, the results were expressed as follows: […]
(§4) + for a <50%-reduction of the increase in pressure or cardiac frequency
(§5) ++ for a ≥50%-reduction of the increase in pressure or cardiac frequency
(§6) +++ for a subtotal reduction of the increase in pressure or cardiac frequency

[2] = test system: epinephrine-accelerated heart rate (anti-β effect); experiment: Antiadrenergic effect: anti-β effect (reduction of epinephrine-accelerated heart rate); format: in vivo; details: dog
Experimental: as §1, §2, §3, §4, §5, §6

[3] = test system: blood-flow to the myocardium; experiment: Effect on blood-flow to the myocardium, anaesthetized dogs, intravenous; format: in vivo, dog; details: anaesthetized dog
Experimental: It was undertaken on anaesthetized dogs which received the substance under study by intravenous route. The intensity of the maximum effect on blood-flow to the myocardium was expressed in percentage of the corresponding value before injection. The time required for the maximum effect to decrease by 50% represented the duration of the effect. This time was measured in minutes.

[4] = Canis lupus familiaris, iv, dose 8.76 mg/kg i.v.
[5] = Canis lupus familiaris, iv, dose 10 mg/kg i.v.
[6] = Canis lupus familiaris, iv, dose 10 mg/kg i.v., read-out: Max. increase (blood-flow to the myocardium)

Structure (SMILES): CCCN(CCC)CCCOc1ccc(C(=O)c2c(C(C)C)cc3ccccn23)cc1Br [H/Br/H/iso-C3H7/n-C3H7/3, 2-Isopropyl-3-[4-(3-di-n-propylaminopropyl)-oxy-3-bromo-benzoyl]-indolizine]
- Anti-α effect ([1]; dose 7.5 mg/kg i.v.): +++
- inhibition in vivo at 7.5 mg/kg ([2]; Canis lupus familiaris, iv, dose 7.5 mg/kg i.v.): > 50%

Structure (SMILES): CCCCN(CCCC)CCCOc1ccc(C(=O)c2c(C(C)C)cc3ccccn23)cc1Br [H/Br/H/iso-C3H7/n-C4H9/3]
- Anti-α effect ([1]; dose 6 mg/kg i.v.): +++
- inhibition in vivo at 6 mg/kg ([2]; Canis lupus familiaris, iv, dose 6 mg/kg i.v.): > 50%

Structure (SMILES): CCCCN(CCCC)CCCOc1ccc(C(=O)c2c(CCC)cc3ccccn23)cc1Br [H/Br/H/n-C3H7/n-C4H9/3, 2-n-Propyl-3-[4-(3-di-n-butylaminopropyl)-oxy-3-bromo-benzoyl]-indolizine]
- change in vivo at 2 mg/kg ([3]; Canis lupus familiaris, iv, dose 2 mg/kg i.v., read-out: Max. increase (blood-flow to the myocardium)): 120%
- Time required to decrease to 50% (duration of effect) ([3]; dose 2 mg/kg i.v.): 25 min

Structure (SMILES): CCCCc1cc2ccccn2c1C(=O)c1ccc(OCCCN(CCC)CCC)c(Br)c1 [H/Br/H/n-C4H9/n-C3H7/3, 2-n-Butyl-3-[4-(3-di-n-propylaminopropyl)-oxy-3-bromo-benzoyl]-indolizine]
- Anti-α effect ([1]; dose 5 mg/kg i.v.): +++
- inhibition in vivo at 5 mg/kg ([2]; Canis lupus familiaris, iv, dose 5 mg/kg i.v.): > 50%

Structure (SMILES): CCCCN(CCCC)CCCOc1ccc(C(=O)c2c(CC)cc3ccccn23)cc1C [H/CH3/H/C2H5/n-C4H9/3, 2-Ethyl-3-[4-(3-di-n-butylaminopropyl)-oxy-3-methyl-benzoyl]-indolizine]
- Anti-α effect ([1]; dose 10 mg/kg i.v.): +++
- Anti-β effect ([2]; dose 10 mg/kg i.v.): +++

Structure (SMILES): CCCCN(CCCC)CCCOc1ccc(C(=O)c2c(C)cc3ccccn23)cc1C [H/CH3/H/CH3/n-C4H9/3, 2-Methyl-3-[4-(3-di-n-butylaminopropyl)-oxy-3-methyl-benzoyl]-indolizine]
- inhibition in vivo at 8.76 mg/kg [1, 4]: > 50%
- inhibition in vivo at 8.76 mg/kg [2, 4]: > 50%

Structure (SMILES): CCCCN(CCCC)CCCOc1ccc(C(=O)c2c(C(C)C)cc3ccccn23)cc1C [H/CH3/H/iso-C3H7/n-C4H9/3, 2-Isopropyl-3-[4-(3-di-n-butylaminopropyl)-oxy-3-methyl-benzoyl]-indolizine]
- Anti-α effect ([1]; dose 7.5 mg/kg i.v.): +++
- Anti-β effect ([2]; dose 7.5 mg/kg i.v.): +++

Structure (SMILES): CCCCc1cc2ccccn2c1C(=O)c1ccc(OCCCN(CCCC)CCCC)c(C)c1 [H/CH3/H/n-C4H9/n-C4H9/3, 2-n-Butyl-3-[4-(3-di-n-butylaminopropyl)-oxy-3-methyl-benzoyl]-indolizine]
- inhibition in vivo at 10 mg/kg [1, 5]: > 50%
- inhibition in vivo at 10 mg/kg [2, 5]: > 50%

Structure (SMILES): CCCCN(CCCC)CCCOc1c(Cl)cc(C(=O)c2c(-c3ccc(Br)cc3)cc3ccccn23)cc1Cl [H/Cl/Cl/drawing 14/n-C4H9/3]
- change in vivo at 10 mg/kg [3, 6]: 45%
- Time required to decrease to 50% (duration of effect) ([3]; dose 10 mg/kg i.v.): 15 min

Structure (SMILES): CCCN(CCC)CCCOc1ccc(C(=O)c2c(CC)cc3ccccn23)cc1Cl [H/Cl/H/C2H5/n-C3H7/3, 2-Ethyl-3-[4-(3-di-n-propylaminopropyl)-oxy-3-chloro-benzoyl]-indolizine]
- inhibition in vivo at 10 mg/kg [1, 5]: > 50%
- inhibition in vivo at 10 mg/kg [2, 5]: > 50%

Structure (SMILES): CCCCN(CCCC)CCCOc1ccc(C(=O)c2c(-c3cccc(Br)c3)cc3ccccn23)cc1Cl [H/Cl/H/drawing 15/n-C4H9/3]
- change in vivo at 10 mg/kg [3, 6]: 30%
- Time required to decrease to 50% (duration of effect) ([3]; dose 10 mg/kg i.v.): 45 min

Structure (SMILES): CCCCN(CCCC)CCCOc1ccc(C(=O)c2c(-c3cccc(Br)c3)cc3ccccn23)cc1Cl [H/Cl/H/drawing 25/n-C4H9/3]
- inhibition in vivo at 10 mg/kg [1, 5]: > 50%
- inhibition in vivo at 10 mg/kg [2, 5]: > 50%

Structure (SMILES): CCCCN(CCCC)CCCOc1ccc(C(=O)c2c(-c3ccc(Br)cc3)cc3ccccn23)cc1Cl [H/Cl/H/drawing 31/n-C4H9/3]
- inhibition in vivo at 10 mg/kg [1, 5]: > 50%
- inhibition in vivo at 10 mg/kg [2, 5]: < 50%

Structure (SMILES): CCCCN(CCCC)CCCOc1ccc(C(=O)c2c(CC)cc3ccccn23)cc1OC [H/OCH3/H/C2H5/n-C4H9/3, 2-Ethyl-3-[4-(3-di-n-butylaminopropyl)-oxy-3-methoxy-benzoyl]-indolizine]
- Anti-α effect ([1]; dose 10 mg/kg i.v.): +++
- inhibition in vivo at 10 mg/kg [2, 5]: > 50%

Structure (SMILES): CCCN(CCC)CCCOc1ccc(C(=O)c2c(-c3ccccc3)c(OC)c3ccccn23)cc1Cl [OCH3/Cl/H/drawing 43/n-C3H7/3, 1-Methoxy-2-phenyl-3-[4-(3-di-n-propylaminopropyl)-oxy-3-chloro-benzoyl]-indolizine]
- Anti-α effect ([1]; dose 10 mg/kg i.v.): +++
- Anti-β effect ([2]; dose 10 mg/kg i.v.): +++

Structure (SMILES): CCCN(CCC)CCCOc1ccc(C(=O)c2c(-c3ccccc3)c(OC)c3ccccn23)cc1OC [OCH3/OCH3/H/drawing 44/n-C3H7/3]
- inhibition in vivo at 10 mg/kg [1, 5]: > 50%
- inhibition in vivo at 10 mg/kg [2, 5]: > 50%

Source: US4520026A, “Indolizine derivatives and use as cardiovascular agents” (S. A. Labaz N.V., priority 1982, dated 1985)
